Blank lines part the entries; values can stand above or below the molecule they belong to.
How the values were obtained:
[1] = tested on: Caco-2 cell monolayers; assay: TEER measurement of Caco-2 monolayer; format: cell-based, human; details: 37 °C, N=3
Method: In preparation for the assays, the cell membranes were allowed to equilibrate for 30 min in transport buffer; HBSS (pH 7.4) with 0.001% MC was added to the apical (0.5 mL) and basal (1.5 mL) chambers of the transwell.
The TEER of the Caco-2 monolayer was measured to confirm cell growth and differentiation on the insert filter of the transwell using a Millicell ERS-2 (Millipore Corp., Bedford, MA, USA). Before seeding the Caco-2 cells, the electrical resistance of the insert filter in the medium was measured and subtracted from the total electrical resistance determined for the monolayer to calculate the intrinsic TEER of the monolayer. The TEER of the monolayer was measured at the end of the 2 h incubation to detect any negative effects of the applied L-tryptophan on the intercellular tight junctions. The TEER is expressed as a percentage calculated by dividing the TEER value (Ω cm^2) at 2 h by the initial value.

[2] = tested on: rat ileal segments; assay: In situ LDH leakage from rat ileal segments; format: in vivo; details: rat ileal loop; insulin 50 IU/kg with L-tryptophan 16 and 32 mM; fluid collected 60 min after administration; N=3; positive control 5% sodium taurodeoxycholate
Method: (§2) To assess the cytotoxic effects of L-tryptophan, the integrity of the cell membrane after treatment with the CPPs was examined by measuring the lactate dehydrogenase (LDH) released from the cytoplasm under both in vitro and in situ conditions.
For the trial with the highest concentration of L-tryptophan (50 mM), L-arginine (40 mM) was added as a solubilizing agent. For this test, 5% sodium taurodeoxycholate was used as a positive control. At 60 min after administration, the ileal loop was washed with 5.0 mL of PBS and then intestinal fluid was collected. After adjusting the collected intestinal fluid to a total volume of 6.0 mL with PBS, the activity of LDH (Unit) leaked into the intestinal fluid was determined using an LDH kit (Promega Corp.).

[3] = In vivo oral administration study, blood glucose levels; details: mice fasted 24 h; oral gavage insulin 50 IU/kg with L-tryptophan 32 mM (100 μL); blood glucose 0-360 min; N=6-8
Method: Blood glucose levels were measured (One Touch Ultra View, Johnson & Johnson K.K., Tokyo, Japan) by collection of blood (one drop) from a small cut in the tail vein at t = 0 (prior to dosing), 15, 30, 60, 120, 180, 240, 300 and 360 min after administration. Blood glucose levels are depicted as percentage of the initial value in same mouse. Mice were trained with oral dosing and tail cutting at 24 h and 60 min prior to actual drug administration to avoid the unexpected elevation of blood glucose levels during experiments.

[4] = tested on: Caco-2 cells; assay: Cell viability assay (WST-8, CCK-8); format: cell-based, human; details: completed DMEM, 600–2400 μM, 2 h then 3 h with CCK-8, N=6-11
Method: To examine the cellular viability of Caco-2 cells exposed to L-tryptophan, a WST-8 assay was performed with Cell Counting Kit-8 (CCK-8, Dojindo Laboratories, Kumamoto, Japan). The Caco-2 cells were grown in 96-well plates with a 0.33 cm^2 culture area (Nippon Becton Dickinson) to a density of 3.0 × 10^4 cells/cm^2 and then grown in 100 μL of completed DMEM for 3 or 4 days. In this assay, the completed DMEM was used in place of the incubation buffer to prevent the possible loss of cell viability during total 5 h incubation in HBSS. First, 10 μL of L-tryptophan stock solution (eleven times concentration) or transport buffer was added to 100 μL of completed DMEM and the cells were incubated with various concentrations of L-tryptophan (600–2400 μM) for 2 h. Then, 10 μL of CCK-8 reagent was added to the wells and the cells were incubated for an additional 3 h to allow for the reductive reaction of WST-8. The resulting absorbances of the incubated solution in the wells were read with a microplate reader (Synergy HT, BioTek Instruments Inc.) at a wavelength of 450 nm. In this assay, 0.8% of Triton X-100 was used as a positive control, same as the LDH assay.

[5] = tested on: Caco-2 cells; assay: In vitro LDH leakage; format: cell-based, human; details: HBSS pH 7.4 with 0.001% MC, 300–2400 μM, 120 min, 37 °C, relative to 0.8% Triton X-100, N=3
Method: as §2
In the in vitro assay, the Caco-2 cells were grown in 24-well plates with a 1.88 cm^2 culture area (Nippon Becton Dickinson) at the density of 1.0 × 10^5 cells/cm^2 and then grown in completed DMEM for 3 or 4 days. Before the addition of L-tryptophan, cell membranes were allowed to equilibrate in 0.5 mL of assay buffer for 30 min. HBSS containing 0.001% MC (pH 7.4) was added to the wells as the transport buffer. After a 30 min pre-incubation with transport buffer, the assay was initiated by replacing 50 μL of transport buffer with 50 μL of L-tryptophan stock solution (ten times concentration) or transport buffer. […] The incubation buffer was collected and LDH released from the cytoplasm into the incubation buffer was determined using a CytoTox 96 Non-Radioactive Cytotoxicity Assay kit (Promega Corp., Madison, WI, USA). Cytotoxicity was expressed as the percentage calculated by dividing the absorbance of the vehicle (HBSS) or the L-tryptophan-treated sample by that of a sample treated with 0.8% Triton X-100, according to the instructions of assay kit.

[6] = molecular target: T1, insulin (Homo sapiens, UniProt P01308); assay: SPR-based binding assay on immobilized insulin
T1 construct: purchased Wako Pure Chemical Industries, Ltd. (Osaka, Japan)
Method: Reference surfaces were prepared by amine coupling activation followed by immediate deactivation. […] At the end of each cycle, the surface was regenerated by a 30 s injection of 1 M NaCl. […] Each sensorgram was determined by subtracting nonspecific binding on the surface of the reference flow cell from total binding on the immobilized-insulin surface.

[7] = In situ closed ileum loop absorption of dextrans and peptide drugs with or without L-tryptophan
Method: Additional i.p. injections of sodium pentobarbital (12.5 mg/kg) were administered every 1 h to maintain anesthesia. The ileum was exposed following a small midline incision made carefully in the abdomen. Its proximal to ileocecal junction segments (length = 10 cm) were cannulated at both ends using polypropylene tubing and ligated securely to prevent fluid loss. To wash out the intestinal contents, PBS warmed to 37 °C was circulated through the cannula at 5.0 mL/min for 4 min using an infusion pump. The cannulation tubing was removed, the segments were closed tightly and returned carefully to their original location inside the peritoneal cavity. Rats were kept on the board at 37 °C for an additional 30 min to calm biological reactions such as elevated blood glucose levels resulting from the stress imposed by surgery. […] To examine dose dependency, the final concentrations of tryptophan were adjusted to 4, 8, 16 and 32 mM. […]
(§1) During the experiment, 0.25 mL blood aliquots were taken from the jugular vein at 0, 5, 10, 15, 30, 60, 120 and 180 min after dosing. […] The plasma concentrations of FDs were measured with a microplate fluorimeter (Synergy HT, BioTek Instruments Inc., Winooski, VT, USA) at excitation and emission wavelengths of 485 and 528 nm, respectively.

[8] = tested on: Caco-2 cell monolayers; details: 9.6 mM (equivalent to 4.2 mg/kg in the animal study) added to transwell; cited from earlier work
[9] = insulin co-administered with additive at 40 mM; cited from earlier work
[10] = In situ closed ileum loop administration study: insulin co-administered with additives; details: in situ rat ileal loop; for Effect on the intestinal absorption of insulin (in words): insulin 50 IU/kg co-administered with additive at 32 mM, N=3-8
Method: Additional i.p. injections of sodium pentobarbital (12.5 mg/kg) were administered every 1 h to maintain anesthesia. The ileum was exposed following a small midline incision made carefully in the abdomen. Its proximal to ileocecal junction segments (length = 10 cm) were cannulated at both ends using polypropylene tubing and ligated securely to prevent fluid loss. To wash out the intestinal contents, PBS warmed to 37 °C was circulated through the cannula at 5.0 mL/min for 4 min using an infusion pump. The cannulation tubing was removed, the segments were closed tightly and returned carefully to their original location inside the peritoneal cavity. Rats were kept on the board at 37 °C for an additional 30 min to calm biological reactions such as elevated blood glucose levels resulting from the stress imposed by surgery. […] To examine dose dependency, the final concentrations of tryptophan were adjusted to 4, 8, 16 and 32 mM. In the comparison study with three hydrophobic amino acids or metabolite of L-tryptophan, the final concentrations of L-isoleucine, L-proline, L-phenylalanine and serotonin were 32 mM. In the study examining the synergistic effect of L-arginine and L-tryptophan, the final concentration of L-arginine was fixed at 40 mM.
as §1, with “dosing. The tuberculin syringes (1 mL, Terumo Corp., Tokyo, Japan) were heparinized by the standard procedure of coating the syringe wall with aspirated heparin and then expelling all the heparin.” for “dosing.”

[11] = tested on: Caco-2 cell monolayers; assay: Transcellular transport assay: insulin permeation through Caco-2 monolayer; details: Caco-2 transwell, apical to basal, insulin 15 μM co-incubated with additive 2.4 or 16 mM, HBSS pH 7.4, 2 h, 37 °C; N=3
Method: For TEER measurement, Caco-2 cells were grown in 12-well transwell plates with a 1.13 cm^2 culture area (collagen-coated polytetrafluoroethylene (PTFE) membrane with 0.4 μm pore size, Corning Inc., Corning, NY, USA). The cells were cultured to a density of 1.0 × 10^5 cells/cm^2. […] The culture medium was changed every second day and the electrical resistance was monitored by the method described below. Each well consisted of apical (top) and basal (bottom) chambers, which were separated by a collagen-coated polytetrafluoroethylene membrane with a pore size of 0.4 μm and a filter area of 1.12 cm^2.
In preparation for the assays, the cell membranes were allowed to equilibrate for 30 min in transport buffer; HBSS (pH 7.4) with 0.001% MC was added to the apical (0.5 mL) and basal (1.5 mL) chambers of the transwell. […] During the incubation, the Caco-2 monolayer was kept at physiological temperature (37 °C).

T1 sequence (P01308 25-54 limits assumed): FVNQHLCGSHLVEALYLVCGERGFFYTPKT
T1 sequence (P01308 90-110 limits assumed): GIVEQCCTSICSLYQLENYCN

- Change in TEER of Caco-2 cell monolayers ([1]; typical enhancer as positive control, concentration not given, 2 h): significant reduction in TEER
Molecule: CCCCCCCCCC(=O)[O-].[Na+] [C10, sodium caprate]

Molecule: N[C@@H](Cc1c[nH]c2ccccc12)C(=O)O [L-Tryptophan, L-tryptophan]
- Change in TEER of Caco-2 cell monolayers ([1]; apical, insulin 15 μM with additive 600–16,000 μM, HBSS pH 7.4, 2 h, TEER at 120 min vs initial): No change in the TEER values
- Leakage of LDH into intestinal fluid (in situ) [2]: negligible
- Hypoglycemic reaction / oral absorption of insulin (blood glucose levels) [3]: could enhance the oral absorption of insulin
- Cell viability (WST-8) [4]: no decrease in cell viability
- Release of LDH into the media (in vitro) [5]: no release of LDH
- Binding to immobilized insulin (SPR sensorgram) ([6]; CM5 chip, analyte 2–200 μM, HBSS pH 7.4 with 0.001% MC, 25 °C, 90 s injection): do not show an increase

Molecule: N=C(N)NCCC[C@H](N)C(=O)O [L-arginine]
- Effect on the intestinal absorption of peptide drugs (GLP-1, Exendin-4) ([7]; data not shown): had no effect on the intestinal absorption of such peptide drugs
- Opening of tight junctions in Caco-2 cell monolayers [8]: no opening of tight junctions was observed
- Tmax of insulin absorption after co-administration [9]: 12.8 ± 0.9 min
- Binding with insulin ([6]; data not shown): showed no binding with insulin

Molecule: CC[C@H](C)[C@H](N)C(=O)O [L-isoleucine]
- Effect on the intestinal absorption of insulin (in words) [10]: no stimulatory effect on insulin absorption

Molecule: N[C@@H](Cc1ccccc1)C(=O)O [L-phenylalanine]
- Effect on the intestinal absorption of insulin (in words) [10]: no stimulatory effect on insulin absorption

Molecule: O=C(O)[C@@H]1CCCN1 [L-proline]
- Effect on the intestinal absorption of insulin (in words) [10]: no stimulatory effect on insulin absorption

- Change in TEER of Caco-2 cell monolayers ([1]; apical, insulin 15 μM with additive 2.4 or 16 mM, HBSS pH 7.4, 2 h): increased the TEER
Molecule: NCCc1c[nH]c2ccc(O)cc12 [Serotonin, serotonin]
- Effect on the intestinal absorption of insulin (in words) [10]: could enhance the intestinal absorption of insulin
- Permeation of insulin through Caco-2 monolayer [11]: no stimulatory effect on the permeation of insulin

- AUC, −L-Tryptophan ([7]; rat, in vivo, 1.25 mg/kg): 1.35 ± 0.27 ng·h/mL
Molecule: GLP-1

Molecule: RQIKIWFQNRRMKWKK [L-penetratin]
- Onset of action / of insulin absorption after co-administration ([10]; insulin 50 IU/kg co-administered with L-tryptophan 8-32 mM, L-penetratin 0.5 mM or D-tryptophan 16 and 32 mM, time after administration): 15 min
